Where “and” joins values, the source holds several entries; their conditions need not be identical. Equal entries are not always repeated. Toxic doses and inconclusive results are not listed. No stated cut-off is given here; in the data, active means T/C of 150% or more; inactive means T/C below 125%.
System: L1210 leukemia ip in BDF1 mice, survival T/C
Assay: NCI In Vivo Anticancer Drug Screen. Data for tumor model L1210 Leukemia (intraperitoneal) in B6D2F1 (BDF1) mice
Conditions: endpoint: mean survival time, higher = longer survival
Procedure, shortened: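 Survival endpoint. Drug-treated group vs vehicle group, expressed as T divided by C. Tumor passaged by transplantation.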

[1] = dose: 100.0 mg/kg/injection, schedule: Q04DX003 (ip), vehicle: Klucel (hydroxypropylcellulose) (HPC)
[2] = dose: 200.0 mg/kg/injection, schedule: Q04DX003 (ip), vehicle: Klucel (hydroxypropylcellulose) (HPC)
[3] = dose: 400.0 mg/kg/injection, schedule: Q04DX003 (ip), vehicle: Klucel (hydroxypropylcellulose) (HPC)
[4] = dose: 100.0 mg/kg/injection, schedule: Q01DX001 (ip), vehicle: saline
[5] = dose: 200.0 mg/kg/injection, schedule: Q01DX001 (ip), vehicle: saline
[6] = dose: 400.0 mg/kg/injection, schedule: Q01DX001 (ip), vehicle: saline
[7] = dose: 50.0 mg/kg/injection, schedule: Q01DX001 (ip), vehicle: saline
[8] = dose: 100.0 mg/kg/injection, schedule: Q04DX003 (ip), vehicle: saline
[9] = dose: 100.0 mg/kg/injection, schedule: Q01DX009 (ip), vehicle: saline with Tween-80
[10] = dose: 200.0 mg/kg/injection, schedule: Q01DX009 (ip), vehicle: saline with Tween-80
[11] = dose: 100.0 mg/kg/injection, schedule: Q04DX002 (ip), vehicle: Klucel (hydroxypropylcellulose) (HPC)
[12] = dose: 200.0 mg/kg/injection, schedule: Q04DX002 (ip), vehicle: Klucel (hydroxypropylcellulose) (HPC)
[13] = dose: 400.0 mg/kg/injection, schedule: Q04DX002 (ip), vehicle: Klucel (hydroxypropylcellulose) (HPC)
[14] = dose: 100.0 mg/kg/injection, schedule: Q01DX001 (ip), vehicle: carboxymethylcellulose (CMC)
[15] = dose: 200.0 mg/kg/injection, schedule: Q01DX001 (ip), vehicle: carboxymethylcellulose (CMC)
[16] = dose: 400.0 mg/kg/injection, schedule: Q01DX001 (ip), vehicle: carboxymethylcellulose (CMC)

Measured: T/C

Cc1cc(N(CCCCl)CCCCl)ccc1C=Nc1cc(Cl)c(O)c(Cl)c1
inactive: [1] 104 % of control | [2] 98 % of control | [3] 101 % of control

COc1cc2c(cc1OC)C(NNC(C)=O)CCCC2 (stereo not given)
inactive: [4] 97 % of control | [5] 97 % of control | [6] 103 % of control

CC(C)(C)C(=O)CC(=O)C(C)(C)C.CC(C)(C)C(=O)CC(=O)C(C)(C)C.[Ni]
inactive: dose: 10.0 mg/kg/injection, schedule: Q04DX003 (ip), vehicle: saline 100 % of control | dose: 20.0 mg/kg/injection, schedule: Q04DX003 (ip), vehicle: saline 94 % of control | dose: 40.0 mg/kg/injection, schedule: Q04DX003 (ip), vehicle: saline 117 % of control

COC(=O)c1sccc1C=O
inactive: [7] 103 % of control | [4] 100 % of control | [1] 100 % of control | dose: 100.0 mg/kg/injection, schedule: Q04DX003 (ip), vehicle: acetone 98 % of control | [5] 100 % of control | [2] 104 % of control | dose: 200.0 mg/kg/injection, schedule: Q04DX003 (ip), vehicle: acetone 102 % of control | [6] 97 % of control | [3] 105 % of control | dose: 400.0 mg/kg/injection, schedule: Q04DX003 (ip), vehicle: acetone 89 % of control

Oc1cc(O)c(CN2CCCCC2)cc1CN1CCCCC1
inactive: [4] 87 % of control

CC1=C(/C=C/C(C)=N/NC(N)=O)C(C)(C)CCC1
inactive: dose: 100.0 mg/kg/injection, schedule: Q01DX009 (ip), vehicle: saline 100 % of control | [8] 94 % of control | dose: 200.0 mg/kg/injection, schedule: Q01DX009 (ip), vehicle: saline 100 % of control | dose: 200.0 mg/kg/injection, schedule: Q04DX003 (ip), vehicle: saline 102 % of control | dose: 400.0 mg/kg/injection, schedule: Q04DX003 (ip), vehicle: saline 96 % of control

COC(=O)C(=O)c1ccccc1
inactive: [9] 101 % of control | [10] 100 % of control | dose: 400.0 mg/kg/injection, schedule: Q01DX009 (ip), vehicle: saline with Tween-80 89 % of control

CN(C)CCNC1c2ccccc2CCc2ccccc21
inactive: dose: 18.75 mg/kg/injection, schedule: Q04DX003 (ip), vehicle: saline 98 % of control | dose: 37.5 mg/kg/injection, schedule: Q04DX003 (ip), vehicle: saline 104 % of control | dose: 75.0 mg/kg/injection, schedule: Q04DX003 (ip), vehicle: saline 101 % of control

O=C(CC1(O)C(=O)Nc2ccccc21)C12CC3CC(CC(C3)C1)C2 (stereo not given)
inactive: dose: 50.0 mg/kg/injection, schedule: Q01DX009 (ip), vehicle: saline with Tween-80 104 % of control | [9] 101 % of control | [10] 96 % of control

O=C(O)Cc1n[nH]c(=O)c2ccccc12
inactive: [11] 93 % of control | [12] 99 % of control | [13] 102 % of control

CC(C)C([NH-])=O.CC(C)C([NH-])=O.[Cl][Pt+2][Cl]
inactive: dose: 12.5 mg/kg/injection, schedule: Q04DX003 (ip), vehicle: saline 116 % of control | dose: 25.0 mg/kg/injection, schedule: Q01DX009 (ip), vehicle: saline 102 % of control | dose: 25.0 mg/kg/injection, schedule: Q04DX003 (ip), vehicle: saline 118 % of control | dose: 50.0 mg/kg/injection, schedule: Q01DX009 (ip), vehicle: saline 89 % of control | dose: 50.0 mg/kg/injection, schedule: Q04DX003 (ip), vehicle: saline 112 % of control | [8] 108 % of control and 118 % of control

C=CCc1c2c(ccc(OC)c1=O)-c1c(cc(OC)c(OC)c1OC)CCC2NC(C)=O (stereo not given)
inactive: [14] 106 % of control | [15] 109 % of control | [16] 109 % of control

O=Cc1ccc(OCc2ccccc2)cc1
inactive: [11] 96 % of control | [12] 96 % of control | [13] 92 % of control

OC(CN1CC1)c1ccccc1 (stereo not given)
inactive: dose: 20.0 mg/kg/injection, schedule: Q01DX009 (ip), vehicle: Klucel (hydroxypropylcellulose) (HPC) 95 % of control | dose: 20.0 mg/kg/injection, schedule: Q04DX003 (ip), vehicle: Klucel (hydroxypropylcellulose) (HPC) 97 % of control | dose: 40.0 mg/kg/injection, schedule: Q01DX009 (ip), vehicle: Klucel (hydroxypropylcellulose) (HPC) 95 % of control | dose: 40.0 mg/kg/injection, schedule: Q04DX003 (ip), vehicle: Klucel (hydroxypropylcellulose) (HPC) 102 % of control | dose: 80.0 mg/kg/injection, schedule: Q04DX003 (ip), vehicle: Klucel (hydroxypropylcellulose) (HPC) 97 % of control

O=[N+]([O-])c1cc([N+](=O)[O-])c(NN(c2ccccc2)c2cccc3ccccc23)c([N+](=O)[O-])c1
inactive: dose: 50.0 mg/kg/injection, schedule: Q01DX009 (ip), vehicle: Klucel (hydroxypropylcellulose) (HPC) 101 % of control | dose: 100.0 mg/kg/injection, schedule: Q01DX009 (ip), vehicle: Klucel (hydroxypropylcellulose) (HPC) 101 % of control | [1] 96 % of control | dose: 200.0 mg/kg/injection, schedule: Q01DX009 (ip), vehicle: Klucel (hydroxypropylcellulose) (HPC) 102 % of control | [2] 94 % of control | dose: 400.0 mg/kg/injection, schedule: Q01DX009 (ip), vehicle: Klucel (hydroxypropylcellulose) (HPC) 98 % of control | [3] 94 % of control

O=C(OCC(O)C(O)C(O)C(O)COC(=O)c1ccccc1)c1ccccc1 (stereo not given) (tested in a mixture with another compound)
inactive: dose: 100.0 mg/kg/injection, schedule: Q01DX001 (ip), vehicle: saline with Tween-80 103 % of control | dose: 200.0 mg/kg/injection, schedule: Q01DX001 (ip), vehicle: saline with Tween-80 100 % of control | dose: 400.0 mg/kg/injection, schedule: Q01DX001 (ip), vehicle: saline with Tween-80 90 % of control

Nc1ccc(S(=O)(=O)c2ccc(NCCc3ccccn3)cc2)cc1
inactive: dose: 100.0 mg/kg/injection, schedule: Q04DX003 (ip), vehicle: saline with Tween-80 97 % of control | dose: 200.0 mg/kg/injection, schedule: Q04DX003 (ip), vehicle: saline with Tween-80 105 % of control | dose: 400.0 mg/kg/injection, schedule: Q04DX003 (ip), vehicle: saline with Tween-80 100 % of control

CC[As](=O)(O)CCCc1ccccc1
inactive: dose: 12.5 mg/kg/injection, schedule: Q01DX001 (ip), vehicle: Klucel (hydroxypropylcellulose) (HPC) 106 % of control | dose: 25.0 mg/kg/injection, schedule: Q01DX001 (ip), vehicle: Klucel (hydroxypropylcellulose) (HPC) 109 % of control

CN=C(N)c1ccc(N=C(N)c2ccc(N=C(N)c3ccc(NC(=O)Nc4cccc(NC(=O)Nc5ccc(C(N)=Nc6ccc(C(N)=Nc7ccc(C(N)=NC)cc7)cc6)cc5)c4)cc3)cc2)cc1
inactive: dose: 0.25 mg/kg/injection, schedule: Q01DX015 (ip), vehicle: water 109 % of control | dose: 0.5 mg/kg/injection, schedule: Q01DX015 (ip), vehicle: water 113 % of control | dose: 1.0 mg/kg/injection, schedule: Q01DX015 (ip), vehicle: water 121 % of control | dose: 2.0 mg/kg/injection, schedule: Q01DX015 (ip), vehicle: water 124 % of control
active: dose: 37.5 mg/kg/injection, schedule: Q01DX001 (ip), vehicle: water 177 % of control and 178 % of control and 187 % of control | dose: 75.0 mg/kg/injection, schedule: Q01DX001 (ip), vehicle: water 265 % of control and 278 % of control and 310 % of control

O=C1OC(=O)c2ccc([N+](=O)[O-])c3c(C(=O)O)ccc1c23
inactive: [7] 101 % of control | [4] 104 % of control | [5] 104 % of control | [6] 104 % of control

Cc1cc(N(CCCl)CCCl)ccc1C=Nc1ccc(-c2csc(COc3ccccc3)n2)c(Cl)c1
inactive: [14] 95 % of control | [15] 108 % of control | [16] 103 % of control

CC(=O)Nc1nc(C)c(CCCNS(=O)(=O)c2ccc([N+](=O)[O-])cc2)c(=O)[nH]1
inactive: dose: 100.0 mg/kg/injection, schedule: Q01DX009 (ip), vehicle: gum acacia 90 % of control | dose: 200.0 mg/kg/injection, schedule: Q01DX009 (ip), vehicle: gum acacia 88 % of control | dose: 400.0 mg/kg/injection, schedule: Q01DX009 (ip), vehicle: gum acacia 87 % of control

Source: PubChem BioAssay AID248 (DTP/NCI, 2004)
